Data published in patent US20120207763A1, “PYRROLOPYRIMIDINE COMPOUNDS AND THEIR USES” (ASTEX THERAPEUTICS LIMITED, priority 2006, published 2012).
pIC50: −log10 of the molar value. Where two headings read alike, the source gives them in different places.

How the values were obtained:
Format in all cases: biochemical
JAK-3 = molecular target: T1, JAK-3 (Homo sapiens, UniProt P52333); assay: JAK LANCE enzymatic assay (JAK-3)
T1 construct: GST fusion constructs of the kinase domains of both enzymes are used; GST
T1 sequence (P52333 822-1111 limits assumed): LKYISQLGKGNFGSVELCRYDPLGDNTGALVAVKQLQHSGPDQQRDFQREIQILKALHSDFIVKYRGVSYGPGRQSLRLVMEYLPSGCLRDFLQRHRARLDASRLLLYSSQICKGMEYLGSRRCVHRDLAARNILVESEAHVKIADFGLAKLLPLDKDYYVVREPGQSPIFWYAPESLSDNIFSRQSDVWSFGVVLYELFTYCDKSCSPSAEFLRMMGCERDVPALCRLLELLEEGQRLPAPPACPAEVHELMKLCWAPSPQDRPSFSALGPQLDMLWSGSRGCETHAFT
Description: Binding of cytokines and certain growth factors to their respective receptors trigger activation of Janus kinases, which phosphorylate members of the STAT family. Phosphorylated STAT molecules dimerize and migrate to the nucleus where they bind to DNA and initiate transcription of responsive genes. Inhibitors of pathways downstream of cytokine/growth factor receptors have therapeutic potential for several indications. An enzymatic assay for JAK-3 and JAK-2 has been developed to identify T-cell selective inhibitors. GST fusion constructs of the kinase domains of both enzymes are used and a biotinylated, tyrosine containing peptide serves as substrate. Phosphorylation of this peptide by the respective kinase is quantified with an europium-labeled anti-phosphotyrosine antibody (Eu-PT66) as energy donor and a streptavidin-allophycocyanine conjugate (SA-APC) as energy acceptor. The assay has been established in a 384 well format.
In the JAK LANCE™ assay, a biotinylated peptide is incubated together with compounds and ATP in buffer. The phosphorylation reaction starts after addition of JAK kinase. After incubation at RT the reaction is stopped with EDTA and the product detected by addition Streptavidin-Allophycocyanin and Europium-labeled antiphosphotyrosine antibody. The signal is measured using an EnVision Reader. Exc: 320 nm, Em, Donor: 615 nm and Em, Acceptor: 665 nm in time resolved fashion with a delay of […].

[1] = molecular target: CDK2/Cyclin-A kinase complex (Homo sapiens, UniProt P24941); assay: CDK2 IMAP fluorescence polarization assay; settings: Table E; read-out: CDK2cyA IMAP/IC50 [umol l − 1]
Description: In order to test the CDK2 activity of the compounds of the invention, the CDK2 assay is a flourescence polarization assay, where the enzyme is a purified active CDK2/Cyclin-A kinase complex and the substrate is a synthesized peptide derived from Histone H1. This assay utilizes the IMAP technology from Molecular Devices. The active CDK2/Cyclin-A complex phosphorylates the peptide substrate, which is conjugated with the TAMRA tag. The phosphorylated site is then recognized by a metal containing molecule that interacts with the TAMRA tag to induce a high flourescence polarization. The compounds that inhibit the CDK2 kinase activity would inhibit the flourescence output of the assay.

CDK4 = CDK4 (Homo sapiens, UniProt P11802); assay: CDK4 HTRF assay; settings: Table E
Chain of CDK4 (P11802 whole entry): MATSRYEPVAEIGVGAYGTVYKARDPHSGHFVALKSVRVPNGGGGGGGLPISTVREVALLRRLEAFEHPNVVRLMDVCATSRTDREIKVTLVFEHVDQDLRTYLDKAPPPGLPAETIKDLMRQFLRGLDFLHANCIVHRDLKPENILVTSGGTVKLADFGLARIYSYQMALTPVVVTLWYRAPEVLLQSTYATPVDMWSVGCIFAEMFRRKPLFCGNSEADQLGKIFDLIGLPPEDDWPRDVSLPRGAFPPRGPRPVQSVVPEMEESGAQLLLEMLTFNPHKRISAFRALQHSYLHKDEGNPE
Chain of CDK4 (P24385 whole entry partner): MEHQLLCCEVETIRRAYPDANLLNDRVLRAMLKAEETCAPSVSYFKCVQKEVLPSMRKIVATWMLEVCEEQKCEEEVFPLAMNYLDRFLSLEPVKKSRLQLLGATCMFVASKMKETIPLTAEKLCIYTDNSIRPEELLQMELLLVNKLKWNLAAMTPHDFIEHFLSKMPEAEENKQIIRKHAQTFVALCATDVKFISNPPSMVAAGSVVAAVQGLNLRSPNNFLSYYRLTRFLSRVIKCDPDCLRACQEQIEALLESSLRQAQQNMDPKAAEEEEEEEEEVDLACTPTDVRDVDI

[2] = Table B, read-out: Jak-3 Lance/ IC50 [nmol I-1]
[3] = read-out: CDK4 HTRF/IC50 [umol l − 1]

| SMILES | pIC50 (JAK-3; Table A, read-out: Jak-3/ IC50) | pIC50 [1] | pIC50 (CDK4; [3]) | also measured |
| --- | --- | --- | --- | --- |
| CCC(CC)n1c(=O)n(C)c2cnc(Nc3ccc(N4CCN(C(C)=O)CC4)cc3)nc21 | ≥ 7.00 | – | – | – |
| CCC(CC)N1C(=O)Cc2cnc(Nc3ccc(C(=O)NC)cc3)nc21 | ≤ 7.00 | – | – | – |
| CCC(CC)N1C(=O)Cc2cnc(Nc3ccc(NC(=O)c4cccnc4)cc3)nc21 | ≤ 7.00 | – | – | – |
| CCC(CC)N1C(=O)Cc2cnc(Nc3ccc(NC(C)=O)cc3)nc21 | ≤ 7.00 | – | – | – |
| CCC(c1ccccc1)n1ccc2cnc(Nc3ccc(N4CCN(C(C)=O)CC4)cc3)nc21 (stereo not drawn) | ≥ 7.00 | – | – | – |
| CCC(CC)N1C(=O)Cc2cnc(Nc3cccc(OCCN4CCN(C)CC4)c3)nc21 | ≤ 7.00 | – | – | – |
| Cc1cn(C2CCCCC2)c2nc(Nc3ccc(N4CCNCC4)cc3)ncc12 | – | – | – | pIC50 (JAK-3; [2]): ≤ 7.00 |
| CCC(CC)N1C(=O)Cc2cnc(Cl)nc21 | ≤ 7.00 | – | – | – |
| CC(=O)N1CCN(c2ccc(Nc3ncc4ccn(C5CCCC5)c4n3)cc2)CC1 [drawing 111] | – | – | – | pIC50 (JAK-3; [2]): ≤ 7.00 |
| CCC(CC)N1C(=O)Cc2cnc(Nc3ccc(N4CCN(S(C)(=O)=O)CC4)cc3)nc21 | ≥ 7.00 | – | – | – |
| CCC(CC)N1C(=O)Cc2cnc(Nc3ccc(N4CCOCC4)cc3)nc21 | ≥ 7.00 | – | – | – |
| CCC(CC)N1C(=O)Cc2cnc(Nc3ccc(S(=O)(=O)N4CCN(C)CC4)cc3)nc21 | ≤ 7.00 | – | – | – |
| CCC(CC)N1C(=O)Cc2cnc(Nc3ccc(C(=O)NCCN(C)C)cc3)nc21 | ≤ 7.00 | – | – | – |
| CCC(CC)N1C(=O)Cc2cnc(Nc3cccc(NCCN4CCCC4)c3)nc21 | ≥ 7.00 | – | – | – |
| CCC(CC)N1C(=O)Cc2cnc(Nc3ccc(N4CCN(C(C)=O)CC4)cn3)nc21 | ≤ 7.00 | – | – | – |
| CCC(CC)N1C(=O)Cc2cnc(Nc3ccc(S(=O)(=O)Nc4ccccn4)cc3)nc21 | ≤ 7.00 | – | – | – |
| Cc1cn(C2CCCC2)c2nc(Nc3ccc(N4CCNCC4)cn3)ncc12 [drawing 97] | – | – | – | pIC50 (JAK-3; [2]): ≤ 7.00 |
| CCC(CC)N1C(=O)Cc2cnc(Nc3ccc(N4CCC(O)CC4)cc3)nc21 | ≥ 7.00 | – | – | – |
| CCC(C)n1ccc2cnc(Nc3ccc(N4CCNCC4)cc3)nc21 (stereo not drawn) [Example 230] | – | > 5.00 | > 6.00 | – |
| O=C(c1ccc(Nc2ncc3c(n2)N(C2CC2)C(=O)C3)cc1)N1CCOCC1 | ≤ 7.00 | – | – | – |
| CCC(CC)n1ccc2cnc(Nc3cccc(OCCN4CCCC4)c3)nc21 | ≥ 7.00 | – | – | – |
| CN1CCN(c2ccc(Nc3ncc4c(n3)N(C3CCCCC3)C(=O)C4)cc2)CC1 | ≥ 7.00 | – | – | – |
| CCC(CC)n1ccc2cnc(Nc3ccc(N4CCNCC4)cc3)nc21 [Example 202, [7-(1-Ethyl-propyl)-7H-pyrrolo[2,3-d]pyrimidin-2-yl]-(4-piperazin-1-yl-phenyl)-amine] | – | > 5.00 | > 6.00 | – |
| CC1CCCC(n2ccc3cnc(Nc4ccc(N5CCNCC5)cc4)nc32)C1 (stereo not drawn) [Example 242] | – | > 5.00 | > 6.00 | – |
| c1cc(Nc2ncc3ccn(C4CCCC4)c3n2)ncc1N1CCNCC1 [Example 424] | – | < 5.00 | – | pIC50 (CDK4; CDK4 HTRF/IC50 [umol l − 1]): > 6.00 |
| CCOC(=O)C(C(C)C)n1ccc2cnc(Nc3ccc(N4CCNCC4)cc3)nc21 (stereo not drawn) [Example 231] | – | < 5.00 | > 6.00 | – |
| CC1CCC(n2ccc3cnc(Nc4ccc(N5CCNCC5)cc4)nc32)CC1 (stereo not drawn) [Example 240] | – | > 5.00 | > 6.00 | – |
| NC1CCC(n2ccc3cnc(Nc4ccc(N5CCNCC5)cc4)nc32)CC1 (stereo not drawn) [Example 243] | – | > 6.00 | > 6.00 | – |

Second part, led by results:

| pIC50 (JAK-3; Table A, read-out: Jak-3/ IC50) | pIC50 [1] | pIC50 (CDK4; [3]) | SMILES | also measured |
| --- | --- | --- | --- | --- |
| ≤ 7.00 | – | – | COc1ccc(C(=O)N2CCN(C)CC2)cc1Nc1ncc2c(n1)NC(=O)C2 [drawing 20] | – |
| ≤ 7.00 | – | – | COc1ccc(C(=O)N2CCN(C)CC2)cc1Nc1ncc2c(n1)NC(=O)C2 [drawing 18] | – |
| ≥ 7.00 | – | – | CCC(CC)n1ccc2cnc(Nc3ccc(N4CCN(C)CC4)c(F)c3)nc21 [drawing 83] | – |
| ≥ 7.00 | – | – | CCC(CC)n1ccc2cnc(Nc3ccc(N4CCN(C(C)=O)CC4)cc3)nc21 [drawing 51] | – |
| – | < 5.00 | 5.00 | Cc1cn(C2CCCC2)c2nc(Nc3ccccc3C#N)ncc12 [Example 301] | – |
| – | > 5.00 | > 6.00 | O=C(O)[C@@H]1CCC(n2ccc3cnc(Nc4ccc(N5CCNCC5)cc4)nc32)C1 (stereo partly drawn) [Example 248] | – |
| – | < 5.00 | < 5.00 | Cc1cn(C2CC2)c2nc(Nc3ccc(N4CCNCC4)cc3)ncc12 [Example 276] | – |
| – | < 5.00 | 5.00 | Cc1cn(C2CCCC2)c2nc(Nc3ccccc3[N+](=O)[O-])ncc12 [Example 295] | – |
| – | > 5.00 | > 6.00 | c1cc(N2CCNCC2)ccc1Nc1ncc2ccn(C3CCCC3)c2n1 [Example 256] | – |
| – | > 6.00 | > 6.00 | c1cc(N2CCNCC2)ccc1Nc1ncc2ccn(C3CCCCC3)c2n1 [Example 246] | – |
| – | < 5.00 | < 5.00 | Cc1cn(-c2ccccc2)c2nc(Nc3ccc(N4CCNCC4)cc3)ncc12 [Example 273] | – |
| – | < 5.00 | 5.00 | Cc1cn(C2CCCC2)c2nc(Nc3ccccc3Cl)ncc12 [Example 443] | – |
| – | > 5.00 | 5.00 | Cc1cn(C2CCCC2)c2nc(Nc3ccc(F)cc3)ncc12 [Example 442] | – |
| – | < 5.00 | > 6.00 | Clc1cn(C2CCCC2)c2nc(Nc3ccc(N4CCNCC4)cn3)ncc12 [Example 433] | – |
| – | < 5.00 | > 6.00 | Cc1c(Cl)c2cnc(Nc3ccc(N4CCNCC4)cn3)nc2n1C1CCCC1 [Example 334] | – |
| – | < 5.00 | > 6.00 | COC(=O)c1c(C)c2cnc(Nc3ccc(N4CCNCC4)cn3)nc2n1C1CCCC1 [Example 384, 7-Cyclopentyl-5-methyl-2-(5-piperazin-1-yl-pyridin-2-ylamino)-7H-pyrrolo[2,3-d]pyrimidine-6-carboxylic acid methyl ester] | – |
| – | > 6.00 | > 6.00 | c1cc(N2CCNCC2)ccc1Nc1ncc2ccn(C34CC5CC(CC(C5)C3)C4)c2n1 [Example 245] | – |

| pIC50 (JAK-3; Table A, read-out: Jak-3/ IC50) | pIC50 [1] | pIC50 (CDK4; [3]) | SMILES | also measured |
| --- | --- | --- | --- | --- |
| – | < 5.00 | < 5.00 | COC(=O)c1c(C)n(C2CCCC2)c2nc(Nc3ccc(N4CCNCC4)cc3)ncc12 [Example 408] | – |
| – | > 5.00 | 5.00 | Cc1cn(C2CCCC2)c2nc(Nc3cccc(Cl)c3)ncc12 [Example 299] | – |
| – | > 5.00 | 5.00 | Cc1cn(-c2nccs2)c2nc(Nc3ccc(N4CCN(S(C)(=O)=O)CC4)cn3)ncc12 [Example 446] | – |
| – | > 5.00 | > 6.00 | CCC(CC)n1c(C(C)O)cc2cnc(Nc3ccc(N4CCN(C(C)=O)CC4)cc3)nc21 (stereo not drawn) [Example 376, 1-(4-{4-[7-(1-Ethyl-propyl)-6-(1-hydroxy-ethyl)-7H-pyrrolo[2,3-d]pyrimidin-2-ylamino]-phenyl}-piperazin-1-yl)-ethanone] | – |
| – | > 5.00 | < 5.00 | Cc1ccc(Nc2ncc3ccn(C4CCCC4)c3n2)cc1 [Example 435] | – |
| – | < 5.00 | > 6.00 | Cc1cn(C2CCCCC2)c2nc(Nc3ccc(N4CCNCC4)cn3)ncc12 [Example 426] | – |
| – | > 6.00 | > 6.00 | CCC(CC)n1c(-c2cnco2)cc2cnc(Nc3ccc(N4CCN(C(C)=O)CC4)cc3)nc21 [Example 363, 1-(4-{4-[7-(1-Ethyl-propyl)-6-oxazol-5-yl-7H-pyrrolo[2,3-d]pyrimidin-2-ylamino]-phenyl}-piperazin-1-yl)-ethanone] | – |
| – | > 5.00 | > 6.00 | CCC(CC)n1c(C(C)OC)cc2cnc(Nc3ccc(N4CCNCC4)cc3)nc21 (stereo not drawn) [Example 378, [7-(1-Ethyl-propyl)-6-(1-methoxy-ethyl)-7H-pyrrolo[2,3-d]pyrimidin-2-yl]-(4-piperazin-1-yl-phenyl)-amine] | – |
| – | < 5.00 | < 5.00 | Cc1ccc(Nc2ncc3ccn(C4CCCC4)c3n2)nc1 [Example 434] | – |
| – | > 5.00 | > 6.00 | CCC(CC)n1c(C(=O)Nc2ccccc2)cc2cnc(Nc3ccc(N4CCNCC4)cc3)nc21 [Example 345] | – |
| – | > 5.00 | < 5.00 | CN(C)c1ccc(Nc2ncc3ccn(C4CCCC4)c3n2)cc1 [Example 262] | – |
| – | < 5.00 | 5.00 | Cc1cn(C2CCCC2)c2nc(Nc3ncccn3)ncc12 [Example 296] | – |
| – | > 5.00 | < 5.00 | CCN(CC)c1ccc(Nc2ncc3ccn(C4CCCC4)c3n2)cc1 [Example 261] | – |
| – | < 5.00 | 5.00 | Cc1cn(C2CCCC2)c2nc(Nc3ccccc3F)ncc12 [Example 441] | – |
| – | < 5.00 | 5.00 | Cc1cn(C2CCCC2)c2nc(Nc3ccc(N4CCN(S(C)(=O)=O)CC4)cn3)ncc12 [Example 287] | – |
| – | < 5.00 | > 6.00 | Cc1c(C(=O)O)n(C2CCCC2)c2nc(Nc3ccc(N4CCNCC4)cn3)ncc12 [Example 444] | – |
| – | > 5.00 | 5.00 | COc1cccc(Nc2ncc3c(C)cn(C4CCCC4)c3n2)c1 [Example 294] | – |
